How the values were obtained:
[1] = test system: Plasmodium berghei; assay: Antimalarial activity against Plasmodium berghei NK65 infected in BALB/c mouse assessed as inhibition of parasitemia at 5 mg/kg, po qd for 4 days measured on 7th day after parasite inoculation by Giemsa staining based microscopy relative to control; format: functional; details: 96 h
[2] = test system: Plasmodium berghei; assay: Antimalarial activity against Plasmodium berghei NK65 infected in BALB/c mouse assessed as inhibition of parasitemia at 5 mg/kg, sc qd for 4 days measured on 5th day after parasite inoculation by Giemsa staining based microscopy relative to control; format: functional; details: 96 h
[3] = test system: Plasmodium berghei; assay: Antimalarial activity against Plasmodium berghei NK65 infected in BALB/c mouse assessed as inhibition of parasitemia at 5 mg/kg, sc qd for 4 days measured on 7th day after parasite inoculation by Giemsa staining based microscopy relative to control; format: functional; details: 96 h
[4] = test system: Plasmodium berghei; assay: Antimalarial activity against Plasmodium berghei NK65 infected in BALB/c mouse assessed as mean survival time at 5 mg/kg, po qd for 4 days (reference value: 22 +/- 3 days); format: functional
[5] = test system: Plasmodium berghei; assay: Antimalarial activity against Plasmodium berghei NK65 infected in BALB/c mouse assessed as mean survival time at 5 mg/kg, sc qd for 4 days (reference value: 23 +/- 4 days); format: functional; details: 96 h
[6] = test system: Plasmodium berghei; assay: animal or person; details: NK65, in Mus musculus, po, 96 h, read-out: INH
Description: Antimalarial activity against Plasmodium berghei NK65 infected in BALB/c mouse assessed as inhibition of parasitemia at 5 mg/kg, po qd for 4 days measured on 5th day after parasite inoculation by Giemsa staining based microscopy relative to control

[7] = test system: Plasmodium berghei; assay: Antimalarial activity against Plasmodium berghei NK65 infected in BALB/c mouse assessed as inhibition of parasitemia at 50 mg/kg, po qd for 4 days measured on 5th day after parasite inoculation by Giemsa staining based microscopy relative to control; format: functional; details: 96 h
[8] = test system: Plasmodium berghei; assay: Antimalarial activity against Plasmodium berghei NK65 infected in BALB/c mouse assessed as inhibition of parasitemia at 25 mg/kg, po qd for 4 days measured on 5th day after parasite inoculation by Giemsa staining based microscopy relative to control; format: functional; details: 96 h
[9] = test system: Plasmodium berghei; assay: Antimalarial activity against Plasmodium berghei NK65 infected in BALB/c mouse assessed as inhibition of parasitemia at 25 mg/kg, sc qd for 4 days measured on 5th day after parasite inoculation by Giemsa staining based microscopy relative to control; format: functional; details: 96 h
[10] = test system: Plasmodium berghei; assay: Antimalarial activity against Plasmodium berghei NK65 infected in BALB/c mouse assessed as inhibition of parasitemia at 50 mg/kg, po qd for 4 days measured on 7th day after parasite inoculation by Giemsa staining based microscopy relative to control; format: functional; details: 96 h
[11] = test system: Plasmodium berghei; assay: Antimalarial activity against Plasmodium berghei NK65 infected in BALB/c mouse assessed as inhibition of parasitemia at 25 mg/kg, po qd for 4 days measured on 7th day after parasite inoculation by Giemsa staining based microscopy relative to control; format: functional; details: 96 h
[12] = test system: Plasmodium berghei; assay: Antimalarial activity against Plasmodium berghei NK65 infected in BALB/c mouse assessed as inhibition of parasitemia at 50 mg/kg, sc qd for 4 days measured on 5th day after parasite inoculation by Giemsa staining based microscopy relative to control; format: functional; details: 96 h
[13] = test system: Plasmodium berghei; assay: Antimalarial activity against Plasmodium berghei NK65 infected in BALB/c mouse assessed as inhibition of parasitemia at 50 mg/kg, sc qd for 4 days measured on 7th day after parasite inoculation by Giemsa staining based microscopy relative to control; format: functional; details: 96 h
[14] = test system: Plasmodium berghei; assay: Antimalarial activity against Plasmodium berghei NK65 infected in BALB/c mouse assessed as inhibition of parasitemia at 25 mg/kg, sc qd for 4 days measured on 7th day after parasite inoculation by Giemsa staining based microscopy relative to control; format: functional; details: 96 h
[15] = test system: Plasmodium berghei; assay: Antimalarial activity against Plasmodium berghei NK65 infected in BALB/c mouse assessed as mean survival time at 50 mg/kg, po qd for 4 days (reference value: 22 +/- 3 days); format: functional
[16] = test system: Plasmodium berghei; assay: Antimalarial activity against Plasmodium berghei NK65 infected in BALB/c mouse assessed as mean survival time at 25 mg/kg, po qd for 4 days (reference value: 22 +/- 3 days); format: functional
[17] = test system: Plasmodium berghei; assay: Antimalarial activity against Plasmodium berghei NK65 infected in BALB/c mouse assessed as mean survival time at 50 mg/kg, sc qd for 4 days (reference value: 23 +/- 4 days); format: functional
[18] = test system: Plasmodium berghei; assay: Antimalarial activity against Plasmodium berghei NK65 infected in BALB/c mouse assessed as mean survival time at 25 mg/kg, sc qd for 4 days (reference value: 23 +/- 4 days); format: functional

Compound	inhibition in vivo at 5 mg/kg [1] [%]	inhibition in vivo at 5 mg/kg [2] [%]	inhibition in vivo at 5 mg/kg [3] [%]	mean survival time at 5 mg/kg [4] [days]	mean survival time at 5 mg/kg [5] [days]	inhibition in vivo at 5 mg/kg [6] [%]	inhibition in vivo at 50 mg/kg [7] [%]	inhibition in vivo at 25 mg/kg [8] [%]	inhibition in vivo at 25 mg/kg [9] [%]	inhibition in vivo at 50 mg/kg [10] [%]	inhibition in vivo at 25 mg/kg [11] [%]	inhibition in vivo at 50 mg/kg [12] [%]	inhibition in vivo at 50 mg/kg [13] [%]	inhibition in vivo at 25 mg/kg [14] [%]	MST [15] [days]	MST [16] [days]	MST [17] [days]	MST [18] [days]
CCN(CC)CCCC(C)Nc1ccnc2cc(Cl)ccc12 (centres undefined) [CHLOROQUINE]	98	99	99	> 40	> 40	100	–	–	–	–	–	–	–	–	–	–	–	–
CC(C)=C[C@H](O)C[C@@H](C)[C@H]1CC[C@@]2(C)[C@@H]3[C@@H](O[C@@H]4O[C@H](CO)[C@@H](O)[C@@H](O)[C@H]4O)C=C4[C@@H](CC[C@H](O)C4(C)C)[C@]3(C)CC[C@]12C [BALSAMINOSIDE B]	–	–	–	–	–	–	36.2	23.9	12.5	8.6	0	37.1	5.5	0	23	21	21	20
CCC(=O)O[C@H]1CC[C@@H]2C(=C[C@H](OC)[C@@H]3[C@@]2(C)CC[C@]2(C)[C@@H]([C@H](C)C[C@H](C=C(C)C)OC(=O)CC)CC[C@@]32C)C1(C)C [KARAVOATE D]	–	–	–	–	–	–	45.5	12.3	11.9	11.5	0	42.5	10.5	0	24	23	24	22
CO[C@H]1C=C2[C@@H](CC[C@H](O)C2(C)C)[C@]2(C)CC[C@]3(C)[C@@H]([C@H](C)C[C@@H](O)C=C(C)C)CC[C@@]3(C)[C@H]12 [KARAVELAGENIN C]	–	–	–	–	–	–	33.1	22.7	21.3	3.4	0	18.6	1	0	22	21	22	23
CO[C@H]1C=C2[C@@H](CC[C@H](OC(C)=O)C2(C)C)[C@]2(C)CC[C@]3(C)[C@@H]([C@H](C)C[C@H](C=C(C)C)OC(C)=O)CC[C@@]3(C)[C@H]12 [KARAVOATE B]	–	–	–	–	–	–	58.1	41.8	39.2	25.6	13.2	55.2	28.4	10.1	23	21	24	20

From ChEMBL document CHEMBL3616477, “In vivo evaluation of isolated triterpenes and semi-synthetic derivatives as antimalarial agents” (2015)
